Experimental data published in patent US20230404922A1, “MICROSPHERE FORMULATIONS COMPRISING BTK INHIBITORS AND METHODS FOR MAKING AND USING THE SAME” (Oakwood Laboratories, LLC, priority 2021, published 2023).

Tests used:
[1] = cited from earlier work

solubility in dichloromethane (DCM) (DCM): > 300 mg/g | aqueous solubility (water): < 2.5 mg/g
Compound: C=CC(=O)N1CCC[C@@H](n2nc(-c3ccc(Oc4ccccc4)cc3)c3c(N)ncnc32)C1 [ibrutinib, Ibrutinib]
pKa [1]: about 3.74
